Converted amounts (≈) assume the structure as drawn.

Test in one series: not given
Particulars: in water at ambient temperatures, typically about 20 to 25° C.; cited from earlier work.
A word on the pKa: it is the pH at which an ionisable group is half protonated. `CCOc1nc(NC)nc(NC(=O)NS(=O)(=O)c2ccccc2C(=O)OC)n1` [ethametsulfuron-methyl, methyl 2-[[[[[4-ethoxy-6-(methylamino)-1,3,5-triazin-2-yl]amino]carbonyl]amino]sulfonyl]benzoate]: the pKa is recorded as 4.6. `COc1ncc(F)c2nc(S(=O)(=O)Nc3c(F)cccc3F)nn12` [florasulam, N-(2,6-difluorophenyl)-8-fluoro-5-methoxy[1,2,4]triazolo[1,5-c]pyrimidine-2-sulfonamide]: the pKa was 4.5. On to `CCOc1nc(F)cc2nc(S(=O)(=O)Nc3c(Cl)cccc3C(=O)OC)nn12` [cloransulam-methyl, methyl 3-chloro-2-[[(5-ethoxy-7-fluoro[1,2,4]-triazolo[1,5-c]pyrimidin-2-yl)sulfonyl]amino]benzoate], for which the pKa is given as 4.8. With “methyl 2-[[[[[4,6-bis(trifluoromethoxy)-2-pyrimidinyl]amino]carbonyl]amino]sulfonyl]-benzoate [primisulfuron-methyl]”, the pKa is recorded as 3.5. With `COCCOc1ccccc1S(=O)(=O)NC(=O)N=c1nc(OC)[nH]c(OC)n1` [cinosulfuron, N-[[(4,6-dimethoxy-1,3,5-triazin-2-yl)amino]carbonyl]-2-(2-methoxyethoxy)benzenesulfonamide], the pKa is 4.7. For the molecule `COc1cc(OC)nc(NC(=O)NS(=O)(=O)N(C)S(C)(=O)=O)n1` [amidosulfuron, N-[[[[(4,6-dimethoxy-2-pyrimdinyl)amino]carbonyl]amino]-sulfonyl]-N-methylmethanesulfonamide], the pKa is 3.6. Regarding `COc1nc(C)nc(NC(=O)NS(=O)(=O)c2ccccc2OCCCl)n1` [triasulfuron, 2-(2-chloroethoxy)-N-[[(4-methoxy-6-methyl-1,3,5-triazin-2-yl)amino]carbonyl]benzenesulfonamide], the pKa was 4.6. As to `COc1cc(OC)nc(NC(=O)NS(=O)(=O)c2ncccc2OCC(F)(F)F)n1` [trifloxysulfuron, N-[[(4,6-dimethoxy-2-pyrimidinyl)amino]-carbonyl]-3-(2,2,2-trifluoroethoxy)-2-pyridinesulfonamide], the pKa is reported as 4.8.

As to `CCOC(=O)c1cnn(C)c1S(=O)(=O)NC(=O)Nc1nc(OC)cc(OC)n1` [pyrazosulfuron-ethyl, ethyl 5-[[[[(4,6-dimethoxy-2-pyrimidinyl)amino]carbonyl]amino]sulfonyl]-1-methyl-1H-pyrazole-4-carboxylate], the pKa is given as 3.7. For the molecule “N-[[[2-(cyclopropylcarbonyl)phenyl]amino]sulfonyl]-N^1-(4,6-dimethoxypyrimidin-2-yl)urea [cyclosulfamuron]”, the pKa was 5.0. With `COC(=O)c1c(Cl)nn(C)c1S(=O)(=O)NC(=O)Nc1nc(OC)cc(OC)n1` [halosulfuron-methyl, methyl 3-chloro-5-[[[[(4,6-dimethoxy-2-pyrimidinyl)amino]carbonyl]amino]sulfonyl]-1-methyl-1H-pyrazole-4-carboxylate], the pKa is listed as 3.4.

Test in the next series: not given
As to conditions: cited from earlier work.
In the case of “sodium phosphate dodecahydrate [Na3PO4.12H2O]”, the “Second pKa (conjugate acid)” value is listed as 7.2 and the “Third pKa (conjugate acid)” value is 2.1.

Turning to `O.O=C([O-])[O-].[Na+].[Na+]` [Na2CO3.H2O, sodium carbonate monohydrate], the “First pKa (conjugate acid)” value is 10.2 and the “Second pKa (conjugate acid)” value was 6.4.

With `O=P([O-])([O-])OP(=O)([O-])[O-].[K+].[K+].[K+].[K+]` [K4P2O7, potassium pyrophosphate], the “First pKa (conjugate acid)” value is 9.0, the “Second pKa (conjugate acid)” value is given as 7.0 and the “Third pKa (conjugate acid)” value is reported as 2.0. In the case of `O=C([O-])[O-].[Na+].[Na+]` [Na2CO3, sodium carbonate], the “First pKa (conjugate acid)” value was 10.2 and the “Second pKa (conjugate acid)” value is reported as 6.4. Take `O=C([O-])[O-].[K+].[K+]` [K2CO3, potassium carbonate]: the “First pKa (conjugate acid)” value was 10.2 and the “Second pKa (conjugate acid)” value is recorded as 6.4. `O=P([O-])([O-])OP(=O)([O-])[O-].[Na+].[Na+].[Na+].[Na+]` [Na4P2O7, sodium pyrophosphate]: the “First pKa (conjugate acid)” value was 9.0, the “Second pKa (conjugate acid)” value is given as 7.0 and the “Third pKa (conjugate acid)” value was 2.0.

Another series is described as follows: Solubility of sulfonamide herbicide in pH 7 buffered water. As to conditions: pH 7, aqueous buffer, thermodynamic from solid. Here is the method: At least 1 times up to about 5 times the amount of sulfonamide needed for saturation is added to a mixing vessel containing stock buffer solution at the test temperature (e.g., 20° C.). The mixture is magnetically stirred in the dark while being maintained at the test temperature. Samples are periodically removed for analysis. The samples are centrifuged using a high speed, temperature-controlled centrifuge at the test temperature for about 20 minutes at ≧12000 G to remove suspended particles. An aliquot of each supernatant is taken for analysis.
The concentration of sulfonamide in the supernatant is determined by a high pressure liquid chromatography (HPLC) method suitable for the particular sulfonamide. Typically the HPLC method will use a reversed phase chromatography column and UV detection. […] Also, the pH of the supernatant is measured using a calibrated pH meter capable of resolving differences of 0.1 pH units or less to verify that the pH is 7. Samples are successively withdrawn from the mixing vessel and analyzed until three successive samples show little or no variation in concentration. The test is preferably replicated to ensure accuracy.
As usually defined, the solubility is the dissolved amount per volume that the medium holds. In the case of `COC(=O)c1ccccc1S(=O)(=O)NC(=O)Nc1nc(C)cc(C)n1` [sulfometuron-methyl, methyl 2-[[[[(4,6-dimethyl-2-pyrimidinyl)amino]carbonyl]amino]sulfonyl]benzoate], the solubility is less than 1000 µg/mL. Still for that read-out and setting: the same measure for `COC(=O)c1ccccc1S(=O)(=O)NC(=O)N(C)c1nc(C)nc(OC)n1` [tribenuron-methyl, methyl 2-[[[[N-(4-methoxy-6-methyl-1,3,5-triazin-2-yl)-N-methylamino]carbonyl]-amino]sulfonyl]benzoate]: 1000 to 10000 µg/mL (≈ 2530 to 25300 µM); for `COC(=O)c1ccccc1CS(=O)(=O)NC(=O)Nc1nc(OC)cc(OC)n1` [bensulfuron-methyl, methyl 2-[[[[[(4,6-dimethoxy-2-pyrimidinyl)amino]carbonyl]amino]-sulfonyl]methyl]benzoate]: less than 1000 µg/mL. As to `CCOC(=O)c1ccccc1S(=O)(=O)NC(=O)Nc1nc(Cl)cc(OC)n1` [chlorimuron-ethyl, ethyl 2-[[[[(4-chloro-6-methoxy-2-pyrimdinyl)amino]carbonyl]amino]sulfonyl]benzoate], the solubility is 1000 to 10000 µg/mL (≈ 2410 to 24100 µM). Still for that read-out and setting: the same measure for `COC(=O)c1ccccc1S(=O)(=O)NC(=O)Nc1nc(C)nc(OC)n1` [metsulfuron-methyl, methyl 2-[[[[(4-methoxy-6-methyl-1,3,5-triazin-2-yl)amino]carbonyl]amino]sulfonyl]-benzoate]: 1000 to 10000 µg/mL (≈ 2620 to 26200 µM).

Values taken from patent publication US8071508B2, “Process for preparing paste-extruded sulfonamide compositions” (priority 2002, dated 2011).
